# Measurements from ChEMBL document CHEMBL4715696, “In vitro synergistic anticancer activity of the combination of T-type calcium channel blocker and chemotherapeutic agent in A549 cells” (Bioorg Med Chem Lett, 2016).
# Legend:
# A549 [1] = experiment: Potentiation of etoposide-induced apoptosis in human A549 cells assessed as late apoptotic cells at 10 uM incubated for 48 hrs by AnnexinV-FITC/propidium iodide staining based flow cytometry (reference value: 12.6%); format: functional
# [2] = Metabolic stability in rat plasma assessed as parent compound remaining at 10 uM measured after 2 hrs; format: ADME, cell-free; details: read-out: Stabilty
# A549 [3] = experiment: Potentiation of etoposide-induced cell cycle arrest in human A549 cells assessed as accumulation at S phase at 5 uM in presence of etoposide after 48 hrs by flow cytometric analysis (Rvb =12.3%); format: functional
# A549 [4] = experiment: Decrease in cell cycle associated protein expression in human A549 cells assessed as fold change in cyclin D3 expression at 5 uM after 48 hrs by Western blot analysis (reference value: 0.73); format: functional
# A549 [5] = experiment: Decrease in cell cycle associated protein expression in human A549 cells assessed as fold change in cyclin D3 expression at 2.5 uM after 48 hrs by Western blot analysis (reference value: 0.73); format: functional
# A549 [6] = experiment: Decrease in cell cycle associated protein expression in human A549 cells assessed as fold change in cyclin D1 expression at 10 uM after 6 hrs by Western blot analysis (reference value: 0.68); format: functional
# A549 [7] = experiment: Induction of cell cycle arrest in human A549 cells assessed as decrease in cell accumulation at G2/M phase after 48 hrs by flow cytometric analysis; format: functional, cell-based; details: dose 2.5-10 µM
# [8] = Upregulation of p27KIP1 protein expression in human A549 cells assessed as fold change in expression at 10 uM after 12 hrs by Western blot analysis (reference value: 0.83); format: functional
# A549 [9] = experiment: Potentiation of etoposide-induced cell cycle arrest in human A549 cells assessed as accumulation at G2/M phase at 5 uM in presence of etoposide after 48 hrs by flow cytometric analysis (Rvb =18.9%); format: functional
# [10] = Metabolic stability in mouse liver microsomes assessed as parent compound remaining at 1 uM measured for 30 mins; format: ADME, Microsome; details: read-out: Stabilty
# A549 [11] = experiment: Potentiation of cisplatin-induced cell cycle arrest in human A549 cells assessed as accumulation at G2/M phase at 2.5 uM in presence of cisplatin after 48 hrs by flow cytometric analysis (Rvb =52.9%); format: functional
# [12] = Metabolic stability in human liver microsomes assessed as parent compound remaining at 1 uM measured for 30 mins; format: ADME, Microsome; details: read-out: Stabilty
# A549 [13] = experiment: Decrease in cell cycle associated protein expression in human A549 cells assessed as reduction in cyclin D3 expression at 10 uM by Western blot analysis; format: functional, cell-based; details: time 6-48 hrs, TDE = time-dependent effect
# [14] = Increase in recruitment of […] p27KIP1 to CDK6 in human A549 cells assessed as fold change at 10 uM incubated for 12 hrs by immunoprecipitation/immunoblot analysis (reference value: 0.56); format: functional
# A549 [15] = experiment: Induction of cell cycle arrest in human A549 cells assessed as accumulation at sub G1 phase at 5 uM after 24 hrs by flow cytometric analysis (reference value: 7.8%); format: functional
# A549 [16] = experiment: Decrease in cell cycle associated protein expression in human A549 cells assessed as fold change in CDK4 expression at 10 uM after 6 hrs by Western blot analysis (reference value: 0.87); format: functional
# A549 [17] = experiment: Decrease in cell cycle associated protein expression in human A549 cells assessed as reduction in CDK2 expression after 48 hrs by Western blot analysis; format: functional, cell-based; details: dose 2.5-10 µM
# [18] = Upregulation of p27KIP1 protein expression in human A549 cells assessed as fold change in expression at 2.5 uM after 48 hrs by Western blot analysis (reference value: 0.48); format: functional
# [19] = Metabolic stability in rat plasma assessed as parent compound remaining at 10 uM measured after 1 hr; format: ADME, cell-free; details: read-out: Stabilty
# A549 [20] = experiment: Induction of cell cycle arrest in human A549 cells assessed as accumulation at S phase at 10 uM after 48 hrs by flow cytometric analysis (reference value: 10.4%); format: functional
# A549 [21] = experiment: Induction of apoptosis in human A549 cells assessed as late apoptotic cells at 10 uM incubated for 48 hrs by AnnexinV-FITC/propidium iodide staining based flow cytometry (reference value: 4%); format: functional
# A549 [22] = experiment: Decrease in cell cycle associated protein expression in human A549 cells assessed as fold change in cyclin D1 expression at 5 uM after 48 hrs by Western blot analysis (reference value: 0.39); format: functional
# A549 [23] = experiment: Decrease in cell cycle associated protein expression in human A549 cells assessed as fold change in cyclin D2 expression at 10 uM after 12 hrs by Western blot analysis (reference value: 0.77); format: functional
# A549 [24] = experiment: Potentiation of etoposide-induced cell cycle arrest in human A549 cells assessed as accumulation at sub G1 phase at 5 uM in presence of etoposide after 48 hrs by flow cytometric analysis (Rvb =33 %); format: functional
# A549 [25] = experiment: Decrease in cell cycle associated protein expression in human A549 cells assessed as fold change in CDK6 expression at 10 uM after 6 hrs by Western blot analysis (reference value: 0.7); format: functional
# A549 [26] = experiment: Induction of cell cycle arrest in human A549 cells assessed as accumulation at S phase at 2.5 uM after 48 hrs by flow cytometric analysis (Rvb =10.4%); format: functional
# A549 [27] = experiment: Induction of cell cycle arrest in human A549 cells assessed as accumulation at G1 phase at 5 uM after 48 hrs by flow cytometric analysis (reference value: 57.8 to 65.5%); format: functional
# A549 [28] = experiment: Potentiation of cisplatin-induced cell cycle arrest in human A549 cells assessed as accumulation at sub G1 phase at 10 uM in presence of cisplatin after 48 hrs by flow cytometric analysis (reference value: 17%); format: functional
# A549 [29] = experiment: Potentiation of cisplatin-induced cell cycle arrest in human A549 cells assessed as accumulation at S phase at 2.5 uM in presence of cisplatin after 48 hrs by flow cytometric analysis (Rvb =15.8%); format: functional
# A549 [30] = experiment: Decrease in cell cycle associated protein expression in human A549 cells assessed as fold change in cyclin E expression at 5 uM after 48 hrs by Western blot analysis (reference value: 0.37); format: functional
# A549 [31] = experiment: Induction of cell cycle arrest in human A549 cells assessed as accumulation at G2/M phase at 5 uM after 48 hrs by flow cytometric analysis (reference value: 22.1 to 25.4 %); format: functional
# A549 [32] = experiment: Decrease in cell cycle associated protein expression in human A549 cells assessed as fold change in CDK2 expression at 10 uM after 48 hrs by Western blot analysis (reference value: 0.48 to 0.79); format: functional
# A549 [33] = experiment: Potentiation of cisplatin-induced cell cycle arrest in human A549 cells assessed as accumulation at S phase at 5 uM in presence of cisplatin after 48 hrs by flow cytometric analysis (Rvb =15.8%); format: functional
# A549 [34] = experiment: Induction of cell cycle arrest in human A549 cells assessed as accumulation at G2/M phase at 5 uM after 24 hrs by flow cytometric analysis (reference value: 21.6%); format: functional
# A549 [35] = experiment: Upregulation of p27KIP1 protein expression in human A549 cells after 48 hrs by Western blot analysis; format: functional, cell-based; details: dose 2.5-10 µM
# CYP2C9 = CYP2C9 (Homo sapiens, UniProt P11712); experiment: Inhibition of human CYP2C9 assessed as residual activity at 10 uM measured after 15 mins relative to control; format: ADME; details: read-out: Activity
# Sequence of CYP2C9 (P11712 whole entry): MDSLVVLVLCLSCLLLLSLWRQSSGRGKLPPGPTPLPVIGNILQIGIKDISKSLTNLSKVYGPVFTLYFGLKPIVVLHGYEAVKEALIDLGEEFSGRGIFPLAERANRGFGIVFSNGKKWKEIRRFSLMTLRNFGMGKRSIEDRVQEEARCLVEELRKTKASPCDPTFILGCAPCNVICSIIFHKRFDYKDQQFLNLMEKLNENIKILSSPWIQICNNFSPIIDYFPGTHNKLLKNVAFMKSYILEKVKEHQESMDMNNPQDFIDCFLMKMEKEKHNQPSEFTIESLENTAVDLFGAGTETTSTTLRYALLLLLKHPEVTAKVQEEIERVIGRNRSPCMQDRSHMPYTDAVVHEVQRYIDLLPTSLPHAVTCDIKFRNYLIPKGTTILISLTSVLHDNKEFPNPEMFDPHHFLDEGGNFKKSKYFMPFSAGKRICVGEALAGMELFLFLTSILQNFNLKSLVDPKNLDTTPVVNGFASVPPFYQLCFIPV
structure (smiles),measurement,setting,value
CN(C)C(=O)NCCCN(C)C1=Nc2ccccc2C(CC(=O)NCc2ccc(F)cc2)N1c1ccc(C2CCCCC2)cc1 (stereo unspecified),Activity,A549 [1],12.9%
same,"remaining at 2 h, 10 µM",[2],24.8%
same,Activity,A549 [3],7.9%
same,fold change (FC),A549 [4],0.77
same,fold change (FC),A549 [5],0.74
same,fold change (FC),A549 [6],0.47
same,Activity,A549 [7],Dose-dependent effect
same,fold change (FC),[8],0.65
same,Activity,A549 [9],13.4%
same,"remaining at 0.5 h, 1 µM",[10],64.3%
same,Activity,A549 [11],43%
same,"remaining at 0.5 h, 1 µM",[12],71.2%
same,Activity,A549 [13],Tde
same,fold change (FC),[14],0.68
same,Activity,A549 [15],4.7%
same,fold change (FC),A549 [16],0.88
same,Activity,A549 [17],Dose-dependent effect
same,fold change (FC),[18],0.62
same,"remaining at 1 h, 10 µM",[19],22%
same,Activity,A549 [20],2.4%
same,Activity,A549 [21],4.3%
same,fold change (FC),A549 [22],0.5
same,fold change (FC),A549 [23],0.36
same,Activity,A549 [24],43.4%
same,fold change (FC),A549 [25],0.7
same,Activity,A549 [26],8.8%
same,Activity,A549 [27],67.7%
same,Activity,A549 [28],52.3%
same,Activity,A549 [29],19.2%
same,fold change (FC),A549 [30],0.49
same,Activity,A549 [31],14.3%
same,fold change (FC),A549 [32],0.26
same,Activity,A549 [33],16.8%
same,Activity,A549 [34],19.3%
same,Activity,A549 [35],Dose-dependent effect
same,"activity at 0.25 h, 10 µM",CYP2C9,89.8%
